Patent US12110293B2, “Substituted triazolo quinoxaline derivatives” (GRÜNENTHAL GMBH, priority 2018, dated 2024)

Each compound was assayed against T1, glucocorticoid receptor (Homo sapiens, UniProt P04150) (assay: Agonistic mode of action on the glucocorticoid receptor (CHO-Gal4/GR luciferase reporter cell line)). Conditions: range class observed in the agonistic assay or the antagonistic assay (CHO-Gal4/GR reporter cells); table does not say which mode applies per example.
T1 construct: expressed in transfected cells
T1 sequence (P04150 524-758 limits assumed): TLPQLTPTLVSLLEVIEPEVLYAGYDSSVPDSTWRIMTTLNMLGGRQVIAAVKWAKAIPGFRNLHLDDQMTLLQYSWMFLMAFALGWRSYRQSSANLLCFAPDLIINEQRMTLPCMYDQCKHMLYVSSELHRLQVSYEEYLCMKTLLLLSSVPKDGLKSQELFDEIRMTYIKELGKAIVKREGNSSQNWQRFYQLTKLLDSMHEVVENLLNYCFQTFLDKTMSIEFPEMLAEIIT
Assay type: cell-based
Outline: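 Agonism measured as dose-dependent luciferase luminescence (FLIPR Tetra) from a GAL4-UAS reporter driven by GAL4 DBD fused to GR ligand-binding domain in stable CHO cells. Eight half-log doses, 10 μM to 0.003 μM final in 0.5% DMSO, quadruplicate, on cells seeded 24 h earlier at 5000/well; EC50 derived.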

`Cc1c(-c2ccc(F)c3[nH]ncc23)c(F)cc2c1-n1c(C)nnc1C(C)(C)N2` [Example 524, 7-Fluoro-8-(7-fluoro-1H-indazol-4-yl)-1,4,4,9-tetramethyl-5H-[1,2,4]triazolo[4,3-a]quinoxaline] and `Cc1c(-c2ccc(F)c3[nH]ccc23)c(Cl)cc2c1-n1c(C)nnc1C(C)(C)N2` [Example 506, 7-Chloro-8-(7-fluoro-1H-indol-4-yl)-1,4,4,9-tetramethyl-5H-[1,2,4]triazolo[4,3-a]quinoxaline] fall in the same range of IC50 or EC50 (agonist or antagonist mode not specified): 0.1 to 1 µM for the first, 0.1 to 1 µM for the second.

`Cc1nnc2n1-c1c(cc(Cl)c(-c3cccc4c3cnn4C)c1F)NC2(C)C` [Example 285, 7-Chloro-9-fluoro-1,4,4-trimethyl-8-(1-methyl-1H-indazol-4-yl)-5H-[1,2,4]triazolo[4,3-a]quinoxaline] and `Cc1c(-c2cccc3c2cnn3S(C)(=O)=O)c(Cl)cc2c1-n1c(C)nnc1C(C)(C)N2` [Example 386, 7-Chloro-1,4,4,9-tetramethyl-8-(1-methylsulfonyl-1H-indazol-4-yl)-5H-[1,2,4]triazolo[4,3-a] quinoxaline] fall in the same range of IC50 or EC50 (agonist or antagonist mode not specified): 1 to 15 µM for the first, 1 to 15 µM for the second.

First: CC#CCc1nnc2n1-c1c(cc(F)c(-c3cccc4c(C)c[nH]c34)c1F)NC2(C)C [Example 70, 1-(but-2-yn-1-yl)-7,9-difluoro-4,4-dimethyl-8-(3-methyl-1H-indol-7-yl)-4,5-dihydro-[1,2,4]triazolo[4,3-a]quinoxaline]
Second: CC#Cc1c[nH]c2c(-c3c(F)cc4c(c3F)-n3c(CC)nnc3C(C)(C)N4)cccc12 [Example 13, 1-ethyl-7,9-difluoro-4,4-dimethyl-8-(3-(prop-1-yn-1-yl)-1H-indol-7-yl)-4,5-dihydro-[1,2,4]triazolo[4,3-a]quinoxaline]
The IC50 or EC50 (agonist or antagonist mode not specified) of the first is lower: < 0.1 µM for the first, 0.1 to 1 µM for the second.

`Cc1nnc2n1-c1c(cc(F)c(-c3cccc4c3ccn4CC(F)F)c1F)NC2(C)C` [Example 253, 8-[1-(2,2-Difluoro-ethyl)-1H-indol-4-yl]-7,9-difluoro-1,4,4-trimethyl-5H-[1,2,4]triazolo[4,3-a]quinoxaline] and `Cc1nnc2n1-c1c(cc(F)c(-c3cccc4c3ccn4S(C)(=O)=O)c1C(F)F)NC2(C)C` [Example 315, 9-(Difluoro-methyl)-7-fluoro-1,4,4-trimethyl-8-(1-methylsulfonyl-1H-indol-4-yl)-5H-[1,2,4]triazolo[4,3-a]quinoxaline] fall in the same range of IC50 or EC50 (agonist or antagonist mode not specified): 0.1 to 1 µM for the first, 0.1 to 1 µM for the second.

First: CCc1c(-c2cccc3c2cnn3S(C)(=O)=O)c(F)cc2c1-n1c(C)nnc1C(C)(C)N2 [Example 51, 9-Ethyl-7-fluoro-1,4,4-trimethyl-8-(1-methylsulfonyl-1H-indazol-4-yl)-5H-[1,2,4]triazolo[4,3-a]quinoxaline]
Second: Cc1nnc2n1-c1c(cc(F)c(-c3cccc4c3cnn4S(C)(=O)=O)c1C(F)F)NC2(C)C [Example 382, 9-(Difluoro-methyl)-7-fluoro-1,4,4-trimethyl-8-(1-methylsulfonyl-1H-indazol-4-yl)-5H-[1,2,4]triazolo[4,3-a]quinoxaline]
The IC50 or EC50 (agonist or antagonist mode not specified) of the first is lower: 0.1 to 1 µM for the first, 1 to 15 µM for the second.

First: Cc1cc(-c2c(F)cc3c(c2C)-n2c(C)nnc2C(C)(C)N3)c2ccn(S(C)(=O)=O)c2c1 [Example 493, 7-Fluoro-1,4,4,9-tetramethyl-8-(6-methyl-1-methylsulfonyl-1H-indol-4-yl)-5H-[1,2,4]triazolo[4,3-a] quinoxaline]
Second: CCS(=O)(=O)n1ccc2c(-c3c(F)cc4c(c3F)-n3c(C)nnc3C(C)(C)N4)cc(F)cc21 [Example 18, 8-(1-(ethylsulfonyl)-6-fluoro-1H-indol-4-yl)-7,9-difluoro-1,4,4-trimethyl-4,5-dihydro-[1,2,4]triazolo[4,3-a]quinoxaline]
The IC50 or EC50 (agonist or antagonist mode not specified) of the first is lower: < 0.1 µM for the first, 0.1 to 1 µM for the second.

First: Cc1nnc2n1-c1c(cc(F)c(-c3cccc4c3cnn4S(=O)(=O)C3CC3)c1F)NC2(C)C [Example 234, 8-[1-(Cyclopropylsulfonyl)-1H-indazol-4-yl]-7,9-difluoro-1,4,4-trimethyl-5H-[1,2,4]triazolo[4,3-a]quinoxaline]
Second: CCS(=O)(=O)n1ncc2c(-c3c(F)cc4c(c3C(F)(F)F)-n3c(C)nnc3C(C)(C)N4)cc(F)cc21 [Example 448, 8-[1-(Ethylsulfonyl)-6-fluoro-1H-indazol-4-yl]-7-fluoro-1,4,4-trimethyl-9-(trifluoromethyl)-5H-[1,2,4]triazolo[4,3-a]quinoxaline]
The IC50 or EC50 (agonist or antagonist mode not specified) of the first is higher: 1 to 15 µM for the first, 0.1 to 1 µM for the second.

First: Cc1nnc2n1-c1c(cc(F)c(-c3cc(F)cc4c3cnn4CC(F)F)c1C(F)F)NC2(C)C [Example 472, 8-[1-(2,2-Difluoro-ethyl)-6-fluoro-1H-indazol-4-yl]-9-(difluoro-methyl)-7-fluoro-1,4,4-trimethyl-5H-[1,2,4]triazolo[4,3-a]quinoxaline]
Second: CCc1c(-c2cc(F)cc3c2cnn3CCO)c(F)cc2c1-n1c(C)nnc1C(C)(C)N2 [Example 45, 2-[4-(9-Ethyl-7-fluoro-1,4,4-trimethyl-5H-[1,2,4]triazolo[4,3-a]quinoxalin-8-yl)-6-fluoro-1H-indazol-1-yl]-ethanol]
The IC50 or EC50 (agonist or antagonist mode not specified) of the first is lower: < 0.1 µM for the first, 0.1 to 1 µM for the second.

Compared with `Cc1nnc2n1-c1c(cc(C(F)F)c(-c3cccc4[nH]ccc34)c1F)NC2(C)C` [Example 343, 7-(Difluoro-methyl)-9-fluoro-8-(1H-indol-4-yl)-1,4,4-trimethyl-5H-[1,2,4]triazolo[4,3-a]quinoxaline], `COc1c(-c2cc(F)cc3[nH]ccc23)c(F)cc2c1-n1c(C)nnc1C(C)(C)N2` [Example 468, 7-Fluoro-8-(6-fluoro-1H-indol-4-yl)-9-methoxy-1,4,4-trimethyl-5H-[1,2,4]triazolo[4,3-a]quinoxaline] is lower in IC50 or EC50 (agonist or antagonist mode not specified): 1 to 15 µM for the first, < 0.1 µM for the second.

First: Cc1c(-c2cc(F)cc3c(C)c[nH]c23)c(OC(F)F)cc2c1-n1c(C)nnc1C(C)(C)N2 [Example 365, 7-(Difluoro-methoxy)-8-(5-fluoro-3-methyl-1H-indol-7-yl)-1,4,4,9-tetramethyl-5H-[1,2,4]triazolo[4,3-a]quinoxaline]
Second: COc1cc2c(c(C(F)(F)F)c1-c1cc(F)cc3c(C)c[nH]c13)-n1c(C)nnc1C(C)(C)N2 [Example 459, 8-(5-Fluoro-3-methyl-1H-indol-7-yl)-7-methoxy-1,4,4-trimethyl-9-(trifluoromethyl)-5H-[1,2,4]triazolo[4,3-a]quinoxaline]
The IC50 or EC50 (agonist or antagonist mode not specified) of the first is higher: 1 to 15 µM for the first, < 0.1 µM for the second.

First: Cc1c(-c2cc(C#N)cc3[nH]ccc23)c(F)cc2c1-n1c(C)nnc1C(C)(C)N2 [Example 494, 4-(7-Fluoro-1,4,4,9-tetramethyl-5H-[1,2,4]triazolo[4,3-a]quinoxalin-8-yl)-1H-indole-6-carbonitrile]
Second: Cc1c(-c2cc(F)cc3c(C4CC4)c[nH]c23)c(F)cc2c1-n1c(C)nnc1C(C)(C)N2 [Example 33, 8-(3-cyclopropyl-5-fluoro-1H-indol-7-yl)-7-fluoro-1,4,4,9-tetramethyl-4,5-dihydro-[1,2,4]triazolo[4,3-a]quinoxaline]
The IC50 or EC50 (agonist or antagonist mode not specified) of the first is higher: 0.1 to 1 µM for the first, < 0.1 µM for the second.

`CC#Cc1c[nH]c2c(-c3c(F)cc4c(c3C)-n3c(C(C)O)nnc3C(C)(C)N4)cc(F)cc12` (centres unmarked) [Example 78] showed an IC50 or EC50 (agonist or antagonist mode not specified) of 1 to 15 µM.
